From US20250222168A1, “METHOD OF FORMING AN ALIGNED TISSUE OR TISSUE CONSTRUCT, A TISSUE OR TISSUE CONSTRUCT, AND BIOINK” (PRESIDENT AND FELLOWS OF HARVARD COLLEGE, priority 2022, published 2025)

Assays:
[1] = test system: aOBBs (anisotropic organ building blocks of hiPSC-CMs and hNDFs); experiment: aOBB compaction upon harvest from micropillar array after pre-incubation in ROCK inhibitor; assay type: cell-based, human; details: FIGS. 8F, 8G; pre-incubation of aOBBs (50 uM, 1 hour)
Method: FIGS. 8A-8G depict scalable generation of cellularly aligned, anisotropic organ building blocks (OBBs). […] Scale bars, top: 200 μm, bottom: 20 μm. (FIG. 8B) Fourier analysis used to quantify the high degree of sarcomere alignment. (FIG. 8C) Without capped ends, aOBBs slide off micro-pillars overtime. (FIG. 8D) aOBB force generation on Day 3. n=5 separate passages. […] Scale bars, 1000 μm. In order to prevent aOBB compaction upon removal from pillars, the aOBBs may be pre-incubated in 50 uM rock inhibitor (Y-27632) for a period of time, such as, e.g., 1 hour. Second, 1 mL of 10% gelbrin (w/v) solution is prepared in DMEM/F12 (Gibco). Third, DMEM High Glucose+10% FBS is supplemented with 50 μM […] (Biogems). Fourth, 100 U/mL thrombin solution is prepared in DMEM High Glucose+10% FBS. All ECM and media solutions were held at 37° C. using a hotplate. […] After 1 h, the aOBBs were harvested manually using a P1000 pipette with wide-bore tips. The wide-bore tips were treated with 3% bovine serum albumin (BSA) to prevent adsorption of the aOBBs. aOBBs were collected three wells at a time and transferred into a single 50 mL tube. Upon collection, the aOBBs were allowed to settle under gravity for 5 min. After the supernatant was aspirated, the volume (x mL) of compacted aOBBs was estimated. We subsequently wash compacted aOBBs in 3× volume of gelbrin bioink. […]

[2] = test system: aOBBs (anisotropic organ building blocks of hiPSC-CMs and hNDFs); experiment: aOBB contraction (force generation on micro-pillars) with ROCK inhibitor and after washing; assay type: cell-based, human; details: FIG. 8E, n=10 aOBBs from 1 passage
Description: FIGS. 8A-8G depict scalable generation of cellularly aligned, anisotropic organ building blocks (OBBs). […] Scale bars, top: 200 μm, bottom: 20 μm. (FIG. 8B) Fourier analysis used to quantify the high degree of sarcomere alignment. (FIG. 8C) Without capped ends, aOBBs slide off micro-pillars overtime. (FIG. 8D) aOBB force generation on Day 3. n=5 separate passages. […] Scale bars, 1000 μm. FIGS. 14A-14C depict contractile force measurements for aligned cardiac tissues. Force measurements are quantified using Euler-Bernoulli beam theory. Image and schematic representations of (FIG. 14A) micro- and (FIG. 14B) macro-pillars were quantified using an Instron. Micro- and macro-pillar dimensions were measured from high resolution images recorded across 20 independent samples. (FIG. 14C) The material and geometric information were combined to numerically estimate cantilever spring constants and translate pillar displacement to force generation. Based upon the total concentration of iPSC-CMs, an appropriate volume of 1× rat tail collagen I (Corning) solution was prepared on ice. An appropriate volume of collagen I is calculated based upon a desired final concentration of 1.25 mg/mL. Then y/100 mL of 250 mM CaCl2, ˜x/40 mL of 1 N NaOH, and y mL of collagen I are added, in order, to the basal DMEM high glucose media. […]

For C[C@@H](N)[C@H]1CC[C@H](C(=O)Nc2ccncc2)CC1 [Y-27632], the “effect on aOBB compaction upon harvest” value [1] was “blunts compaction upon harvest from micropillar array”, the “recovery of aOBB contractile function” value ([2]; after washing out ROCK inhibitor) was “Full contractile function is recovered after washing” and the “effect on aOBB contraction” value ([2]; during exposure to ROCK inhibitor) was “temporarily blunts aOBB contraction”.
